Experimental data taken from patent US20240000700A1, “PLANT EXTRACTING METHOD” (GIVAUDAN SA, priority 2020, published 2024).

Tested on: NHEKs
Test: Anti-oxidant activity: ROS production (DCFH probe) under TBP stress
Format: cell-based, human
Conditions: TBP 5 mM; positive control at 200 μM, 24 h pre-incubation
Experimental: NHEKs were seeded in a black plate with a glass bottom at 20′000 cells per well pre-coated with type I collagen. Cells were incubated at 37° C. with 5% CO2 for 24 h. On the next day, the cells were incubated for 24 h with the patchouli extracts and some of the fractions thereof described in examples 1 and 2 above, each at 0.5% (v/v), or Resveratrol (positive control) at 200 μM. After this pre-incubation, the cells were incubated with dichloro-dihydro-fluorescein (DCFH) probe at 50 μM for 30-45 min. The cells were then rinsed two times with PBS and incubated with PBS alone or with PBS containing 5 mM tert-butyl peroxide (TBP) to induce an oxidative stress. Fluorescence reading was performed every 10 min for 1 h, exciting at 488 nm and emitting at 525 nm.

Oc1ccc(C=Cc2cc(O)cc(O)c2)cc1 [Resveratrol]
ROS Production [% of TBP, untreated] Average: 18 % of TBP, untreated
